{"source": "patent US11912645B2", "about": "“Lipopeptide compounds for the treatment of pain disorders” (INSERM (Institut National de la Santé et de la Recherche …, priority 2017, dated 2024)", "tested_on": "mouse sensory neurons activated by capsaicin", "experiment": "Calcium flux in sensory neurons activated by capsaicin (TRPV1 agonist)", "assay_type": "cell-based", "settings": "capsaicin 125 nM; pretreatment with increasing amounts of compound", "experimental": "FIG. 4: C12-Asn-GABA inhibits neuronal activation via the GABA B receptor. Amplitude of intracellular calcium mobilization (ΔF/F; right panel) in mouse sensory neurons and percentage of responding neurons (left panel) pretreated with increasing amounts of C12-Asn-GABA (black circle) or vehicle (HBSS; white circle) and treated with capsaicin (125 nM; A) or a mix of G protein coupled receptor agonists (histamine, serotonin and bradykinin 10 μM each; B). Data are represented as mean±SEM; n=4 independent experiments of 3 wells per condition and 30-80 neurons per well. […] Percentage of responding neurons pretreated with increasing amounts of saclofen (black circle) or vehicle (HBSS; white circle) and treated with C12-Asn-GABA (10 μM) and capsaicin (125 nM; C) or a mix of G protein coupled receptor agonist (histamine, serotonin and bradykinin 10 μM each; D). Data are represented as mean±SEM; n=4 independent experiments of 3 wells per condition and 30-80 neurons per well.\nFIG. 7: C14-Asn-GABA inhibits neuronal activation by capsaicin. Amplitude of intracellular calcium mobilization (F/F; A) in mouse sensory neurons and percentage of responding neurons (B) pretreated with 10 μM of C14-Asn-GABA (black bar) or vehicle (HBSS; white bar) and treated with capsaicin (125 nM). Data are represented as mean±SEM; n=3 independent experiments of 3 wells per condition and 35-82 neurons per well.\nMale C57B16 mice (6-8 weeks) were used to produce primary cultures of dorsal root ganglia (DRG) sensory neurons for calcium flux experiments, and to perform studies of colorectal distention and intestinal isotonic contraction. All procedures were approved by Institutional Animal Care Committees (CEEA 122).\nTo determine whether C12-Asn-GABA or C12-Asn-BABA is capable of signaling to sensory nerves, calcium mobilization studies were performed on primary cultures of mouse dorsal root ganglia (DRG) neurons. […]", "data": [{"compound": "CCCCCCCCCCCC(=O)NC(CC(N)=O)C(=O)NCCCC(=O)O", "note": "(stereo not shown) [C12-Asn-GABA, C11 C(O)-Asn-gamma-aminobutyric acid]", "values": [{"measurement": "calcium flux increase induced by capsaicin (% responding neurons, amplitude ΔF/F)", "result": "prevented by C12-Asn-GABA pretreatment in a dose-dependent manner"}]}]}
